Laboratory results taken from patent publication US20250230193A1, “CYCLIC COMPOUND HAVING SELECTIVE KRAS INHIBITORY EFFECT ON HRAS AND NRAS” (CHUGAI SEIYAKU KABUSHIKI KAISHA, priority 2022, published 2025).
*1 amine or outer side, *2 acyl side, *3 side chain or, on linkers, in order; H or OH if unused. Where a SMILES comes first, the peptide text is derived from it. Bridges are numbered along the chain shown (N, C = ends). [ ]: non-standard residue; d: D form. The star is where a group is joined. hPhe(3-Cl-4-CF3) = N[C@@H](CCc1ccc(C(F)(F)F)c(Cl)c1)C(=O)O; NPrPhe(4-CF3) = CCCN[C@@H](Cc1ccc(C(F)(F)F)cc1)C(=O)O; NEtPhe(4-CF3) = CCN[C@@H](Cc1ccc(C(F)(F)F)cc1)C(=O)O; hPhe(3,4-Cl2) = N[C@@H](CCc1ccc(Cl)c(Cl)c1)C(=O)O; X10 = CCCN([C@@H](Cc1ccc(F)cc1)C(=O)[*:2])[*:1]; NMeGly(cPent) = CN[C@H](C(=O)O)C1CCCC1; Hyp = O=C(O)[C@@H]1C[C@@H](O)CN1; NMeD = CN[C@@H](CC(=O)O)C(=O)O; NMeL = CN[C@@H](CC(C)C)C(=O)O; Ac6c = NC1(C(=O)O)CCCCC1; Morpholide = C1CN(*)CCO1; NMeA = CN[C@@H](C)C(=O)O; Ac5c = NC1(C(=O)O)CCCC1; Aze = O=C(O)[C@@H]1CCN1; Ac3c = NC1(C(=O)O)CC1; Aib = CC(C)(N)C(=O)O; Sar = CNCC(=O)O

Key:
[1] = biological target: GDP-bound NRAS wild-type protein (Homo sapiens, UniProt P01111); test: Binding to NRAS by surface plasmon resonance (SPR), Single Cycle Kinetics; details: KD ratio NRAS/KRAS, SPR
[2] = biological target: GDP-bound HRAS wild-type protein (Homo sapiens, UniProt P01112); test: Binding to HRAS by surface plasmon resonance (SPR), Single Cycle Kinetics; details: KD ratio HRAS/KRAS, SPR
GDP-bound HRAS wild-type protein, sequence (P01112 whole entry): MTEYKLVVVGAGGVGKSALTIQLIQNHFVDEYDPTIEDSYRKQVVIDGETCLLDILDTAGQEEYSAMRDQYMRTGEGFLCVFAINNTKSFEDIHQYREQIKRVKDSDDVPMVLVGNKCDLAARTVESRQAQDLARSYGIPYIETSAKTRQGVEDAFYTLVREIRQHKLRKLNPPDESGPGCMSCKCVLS

GDP-bound NRAS wild-type protein, sequence (P01111 whole entry): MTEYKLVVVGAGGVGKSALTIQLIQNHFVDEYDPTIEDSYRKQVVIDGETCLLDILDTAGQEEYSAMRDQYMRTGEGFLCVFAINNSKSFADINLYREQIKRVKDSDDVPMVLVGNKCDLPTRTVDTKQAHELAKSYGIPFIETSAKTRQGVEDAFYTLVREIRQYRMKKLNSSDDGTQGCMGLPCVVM

Row | SMILES | NRAS/KRAS (ratio of KD for GDP-bound NRAS wild-type to KD for KRAS) [1] | HRAS/KRAS (ratio of KD for GDP-bound HRAS wild-type to KD for KRAS) [2]
1 | CCCN1C(=O)[C@@H]2CCN2C(=O)[C@H](C)N(C)C(=O)[C@H]([C@@H](C)CC)NC(=O)[C@H](CC(C)C)N(C)C(=O)C[C@@H](C(=O)N2CCOCC2)N(C)C(=O)[C@H](C2CCCC2)N(C)C(=O)C2(CCCC2)NC(=O)[C@@H]2CCCN2C(=O)[C@H](CCc2ccc(C(F)(F)F)c(Cl)c2)NC(=O)CN(C)C(=O)[C@@H]1Cc1ccc(F)cc1 [PP0219] ([NMeL]I[NMeA][Aze][X10][Sar][hPhe(3-Cl-4-CF3)]P[Ac5c][NMeGly(cPent)][NMeD]-Morpholide; lactam N-11) | C (A compound having a KD ratio of 0.1 or more and less than 3 is denoted as C) | B (a compound having 3 or more and less than 10 is denoted as B)
2 | CC[C@H](C)[C@@H]1NC(=O)[C@H](CC(C)C)N(C)C(=O)C[C@@H](C(=O)N2CCOCC2)N(C)C(=O)[C@H](C2CCCC2)N(C)C(=O)C2(CC2)NC(=O)[C@@H]2CCCN2C(=O)[C@H](CCc2ccc(C(F)(F)F)c(Cl)c2)NC(=O)CN(C)C(=O)[C@H](Cc2ccc(C(F)(F)F)cc2)N(CC)C(=O)[C@@H]2CCN2C(=O)[C@H](C)N(C)C1=O [PP0220] ([NMeL]I[NMeA][Aze][NEtPhe(4-CF3)][Sar][hPhe(3-Cl-4-CF3)]P[Ac3c][NMeGly(cPent)][NMeD]-Morpholide; lactam N-11) | C (A compound having a KD ratio of 0.1 or more and less than 3 is denoted as C) | C (A compound having a KD ratio of 0.1 or more and less than 3 is denoted as C)
3 | CC[C@H](C)[C@@H]1NC(=O)[C@H](CC(C)C)N(C)C(=O)C[C@@H](C(=O)N2CCOCC2)N(C)C(=O)[C@H](C2CCCC2)N(C)C(=O)C(C)(C)NC(=O)[C@@H]2CCCN2C(=O)[C@H](CCc2ccc(C(F)(F)F)c(Cl)c2)NC(=O)CN(C)C(=O)[C@H](Cc2ccc(C(F)(F)F)cc2)N(CC)C(=O)[C@@H]2CCN2C(=O)[C@H](C)N(C)C1=O [PP0221] ([NMeL]I[NMeA][Aze][NEtPhe(4-CF3)][Sar][hPhe(3-Cl-4-CF3)]P[Aib][NMeGly(cPent)][NMeD]-Morpholide; lactam N-11) | C (A compound having a KD ratio of 0.1 or more and less than 3 is denoted as C) | C (A compound having a KD ratio of 0.1 or more and less than 3 is denoted as C)
4 | CC[C@H](C)[C@@H]1NC(=O)[C@H](CC(C)C)N(C)C(=O)C[C@@H](C(=O)N2CCOCC2)N(C)C(=O)[C@H](C2CCCC2)N(C)C(=O)C2(CCCCC2)NC(=O)[C@@H]2CCCN2C(=O)[C@H](CCc2ccc(C(F)(F)F)c(Cl)c2)NC(=O)CN(C)C(=O)[C@H](Cc2ccc(C(F)(F)F)cc2)N(CC)C(=O)[C@@H]2CCN2C(=O)[C@H](C)N(C)C1=O [PP0222] ([NMeL]I[NMeA][Aze][NEtPhe(4-CF3)][Sar][hPhe(3-Cl-4-CF3)]P[Ac6c][NMeGly(cPent)][NMeD]-Morpholide; lactam N-11) | C (A compound having a KD ratio of 0.1 or more and less than 3 is denoted as C) | C (A compound having a KD ratio of 0.1 or more and less than 3 is denoted as C)
5 | CC[C@H](C)[C@@H]1NC(=O)[C@H](CC(C)C)N(C)C(=O)C[C@@H](C(=O)N2CCOCC2)N(C)C(=O)[C@H](C2CCCC2)N(C)C(=O)C2(CCCC2)NC(=O)[C@@H]2CCCN2C(=O)[C@H](CCc2ccc(Cl)c(Cl)c2)NC(=O)CN(C)C(=O)[C@H](Cc2ccc(C(F)(F)F)cc2)N(CC)C(=O)[C@@H]2CCN2C(=O)[C@H](C)N(C)C1=O [PP0223] ([NMeL]I[NMeA][Aze][NEtPhe(4-CF3)][Sar][hPhe(3,4-Cl2)]P[Ac5c][NMeGly(cPent)][NMeD]-Morpholide; lactam N-11) | C (A compound having a KD ratio of 0.1 or more and less than 3 is denoted as C) | C (A compound having a KD ratio of 0.1 or more and less than 3 is denoted as C)
6 | CCCN1C(=O)[C@@H]2CCN2C(=O)[C@H](C)N(C)C(=O)[C@H]([C@@H](C)CC)NC(=O)[C@H](CC(C)C)N(C)C(=O)C[C@@H](C(=O)N2CCOCC2)N(C)C(=O)[C@H](C2CCCC2)N(C)C(=O)C2(CC2)NC(=O)[C@@H]2CCCN2C(=O)[C@H](CCc2ccc(C(F)(F)F)c(Cl)c2)NC(=O)CN(C)C(=O)[C@@H]1Cc1ccc(C(F)(F)F)cc1 [PP0224] ([NMeL]I[NMeA][Aze][NPrPhe(4-CF3)][Sar][hPhe(3-Cl-4-CF3)]P[Ac3c][NMeGly(cPent)][NMeD]-Morpholide; lactam N-11) | C (A compound having a KD ratio of 0.1 or more and less than 3 is denoted as C) | B (a compound having 3 or more and less than 10 is denoted as B)
7 | CCCN1C(=O)[C@@H]2CCN2C(=O)[C@H](C)N(C)C(=O)[C@H]([C@@H](C)CC)NC(=O)[C@H](CC(C)C)N(C)C(=O)C[C@@H](C(=O)N2CCOCC2)N(C)C(=O)[C@H](C2CCCC2)N(C)C(=O)C(C)(C)NC(=O)[C@@H]2CCCN2C(=O)[C@H](CCc2ccc(C(F)(F)F)c(Cl)c2)NC(=O)CN(C)C(=O)[C@@H]1Cc1ccc(C(F)(F)F)cc1 [PP0225] ([NMeL]I[NMeA][Aze][NPrPhe(4-CF3)][Sar][hPhe(3-Cl-4-CF3)]P[Aib][NMeGly(cPent)][NMeD]-Morpholide; lactam N-11) | C (A compound having a KD ratio of 0.1 or more and less than 3 is denoted as C) | C (A compound having a KD ratio of 0.1 or more and less than 3 is denoted as C)
8 | CCCN1C(=O)[C@@H]2CCN2C(=O)[C@H](C)N(C)C(=O)[C@H]([C@@H](C)CC)NC(=O)[C@H](CC(C)C)N(C)C(=O)C[C@@H](C(=O)N2CCOCC2)N(C)C(=O)[C@H](C2CCCC2)N(C)C(=O)C2(CCCCC2)NC(=O)[C@@H]2CCCN2C(=O)[C@H](CCc2ccc(C(F)(F)F)c(Cl)c2)NC(=O)CN(C)C(=O)[C@@H]1Cc1ccc(C(F)(F)F)cc1 [PP0226] ([NMeL]I[NMeA][Aze][NPrPhe(4-CF3)][Sar][hPhe(3-Cl-4-CF3)]P[Ac6c][NMeGly(cPent)][NMeD]-Morpholide; lactam N-11) | C (A compound having a KD ratio of 0.1 or more and less than 3 is denoted as C) | B (a compound having 3 or more and less than 10 is denoted as B)
9 | CCCN1C(=O)[C@@H]2CCN2C(=O)[C@H](C)N(C)C(=O)[C@H]([C@@H](C)CC)NC(=O)[C@H](CC(C)C)N(C)C(=O)C[C@@H](C(=O)N2CCOCC2)N(C)C(=O)[C@H](C2CCCC2)N(C)C(=O)C2(CCCC2)NC(=O)[C@@H]2CCCN2C(=O)[C@H](CCc2ccc(Cl)c(Cl)c2)NC(=O)CN(C)C(=O)[C@@H]1Cc1ccc(C(F)(F)F)cc1 [PP0227] ([NMeL]I[NMeA][Aze][NPrPhe(4-CF3)][Sar][hPhe(3,4-Cl2)]P[Ac5c][NMeGly(cPent)][NMeD]-Morpholide; lactam N-11) | C (A compound having a KD ratio of 0.1 or more and less than 3 is denoted as C) | B (a compound having 3 or more and less than 10 is denoted as B)
10 | CCCN1C(=O)[C@@H]2CCN2C(=O)[C@H](C)N(C)C(=O)[C@H]([C@@H](C)CC)NC(=O)[C@H](CC(C)C)N(C)C(=O)C[C@@H](C(=O)N2CCOCC2)N(C)C(=O)[C@H](C2CCCC2)N(C)C(=O)C2(CCCC2)NC(=O)[C@@H]2C[C@@H](OCC)CN2C(=O)[C@H](CCc2ccc(C(F)(F)F)c(Cl)c2)NC(=O)CN(C)C(=O)[C@@H]1Cc1ccc(C(F)(F)F)cc1 [PP0228] ([NMeL]I[NMeA][Aze][NPrPhe(4-CF3)][Sar][hPhe(3-Cl-4-CF3)][Hyp](Et)[Ac5c][NMeGly(cPent)][NMeD]-Morpholide; lactam N-11) | C (A compound having a KD ratio of 0.1 or more and less than 3 is denoted as C) | B (a compound having 3 or more and less than 10 is denoted as B)
11 | CCCN1C(=O)CN(C)C(=O)CN(C)C(=O)[C@H]([C@@H](C)CC)NC(=O)[C@H](CC(C)C)N(C)C(=O)C[C@@H](C(=O)N2CCOCC2)N(C)C(=O)[C@H](C2CCCC2)N(C)C(=O)C2(CC2)NC(=O)[C@@H]2CCCN2C(=O)[C@H](CCc2ccc(C(F)(F)F)c(Cl)c2)NC(=O)CN(C)C(=O)[C@@H]1Cc1ccc(C(F)(F)F)cc1 [PP0229] ([NMeL]I[Sar][Sar][NPrPhe(4-CF3)][Sar][hPhe(3-Cl-4-CF3)]P[Ac3c][NMeGly(cPent)][NMeD]-Morpholide; lactam N-11) | B (a compound having 3 or more and less than 10 is denoted as B) | B (a compound having 3 or more and less than 10 is denoted as B)
12 | CCCN1C(=O)CN(C)C(=O)CN(C)C(=O)[C@H]([C@@H](C)CC)NC(=O)[C@H](CC(C)C)N(C)C(=O)C[C@@H](C(=O)N2CCOCC2)N(C)C(=O)[C@H](C2CCCC2)N(C)C(=O)C(C)(C)NC(=O)[C@@H]2CCCN2C(=O)[C@H](CCc2ccc(C(F)(F)F)c(Cl)c2)NC(=O)CN(C)C(=O)[C@@H]1Cc1ccc(C(F)(F)F)cc1 [PP0230] ([NMeL]I[Sar][Sar][NPrPhe(4-CF3)][Sar][hPhe(3-Cl-4-CF3)]P[Aib][NMeGly(cPent)][NMeD]-Morpholide; lactam N-11) | B (a compound having 3 or more and less than 10 is denoted as B) | C (A compound having a KD ratio of 0.1 or more and less than 3 is denoted as C)
13 | CCCN1C(=O)CN(C)C(=O)CN(C)C(=O)[C@H]([C@@H](C)CC)NC(=O)[C@H](CC(C)C)N(C)C(=O)C[C@@H](C(=O)N2CCOCC2)N(C)C(=O)[C@H](C2CCCC2)N(C)C(=O)C2(CCCCC2)NC(=O)[C@@H]2CCCN2C(=O)[C@H](CCc2ccc(C(F)(F)F)c(Cl)c2)NC(=O)CN(C)C(=O)[C@@H]1Cc1ccc(C(F)(F)F)cc1 [PP0231] ([NMeL]I[Sar][Sar][NPrPhe(4-CF3)][Sar][hPhe(3-Cl-4-CF3)]P[Ac6c][NMeGly(cPent)][NMeD]-Morpholide; lactam N-11) | B (a compound having 3 or more and less than 10 is denoted as B) | C (A compound having a KD ratio of 0.1 or more and less than 3 is denoted as C)
